Test results: US5036045A, “Method for increasing growth hormone secretion” (The University of Virginia Alumni Patents Foundation, priority 1988, dated 1991)

Legend:
[1] = tested on: growth hormone secretion; details: cited from earlier work
[2] = tested on: growth hormone secretion; experiment: 14-day continuous intravenous infusion by mechanical pump, 24 hour growth hormone profile; format: in vivo, human; details: 10 ng/kg/min intravenous over 14 days, 4 subjects
Procedure: Growth hormone releasing factor was administered by mechanical pump which delivered a dose of 10 ng/kg/min by the intravenous route over 14 days in 4 subjects aged 26 to 31 years. The profile of growth hormone secretion was measured over 24 hours before the initiation of the infusion, on the fourteenth day of the infusion, and two weeks after stopping the infusion.

[3] = tested on: growth hormone secretion; experiment: 6 hour infusion followed by insulin (hypoglycemia) stimulus; format: in vivo, human; details: insulin given at the end, compared to hypoglycemia after vehicle infusion
Procedure: (§1) In a most recent study the 6 hour infusion was repeated but insulin was given at the end of the infusion to provide an alternate stimulus (hypoglycemia) for growth hormone secretion compared to hypoglycemia after vehicle infusion. […] Next 24 hour infusions of growth hormone releasing factor were performed and the growth hormone and growth hormone releasing factor secretory profile of a patient were studied with ectopic growth hormone releasing factor secretion (Vance et al, J. Clin. Invest., 1985, 75, 1584-1590). In this patient growth hormone secretion was pulsatile despite continuously elevated immunoreactive growth hormone releasing factor levels. To determine if pulsatile growth hormone secretion is maintained in normal subjects, vehicle or growth hormone releasing factor-40, 2 ng/kg/min, was administered to six healthy young men for 24 hours and gave a supramaximal intravenous bolus dose of growth hormone releasing factor-40, 3 μg/kg after 23.5 hours of infusion.

[4] = tested on: growth; details: normal rat, cited from earlier work
[5] = adverse effects of continuous administration; format: in vivo
[6] = tested on: growth hormone secretion; experiment: 24 hour infusion in healthy young men with supramaximal bolus after 23.5 hours; format: in vivo, human; details: 2 ng/kg/min for 24 hours, six healthy young men
Procedure: as §1

[7] = tested on: growth hormone secretion; details: after 6 hours infusions of 1, 3.3 and 10 ng/kg/min; cited from earlier work

Substance	release of growth hormone in response to supramaximal dose at end of infusion ([1]; end of the 6 or 24 hour infusion)	growth hormone secretion over the duration of the infusion ([1]; short-term administration (6-24 hours))	response to a supramaximal dose of growth hormone releasing factor [2]	growth hormone secretion ([2]; measured on fourteenth day of infusion)	serum Insulin Growth Factor-1 (IGF-1) level ([2]; marker of biological activity of growth hormone)	desensitization to growth hormone releasing factor [3]	growth, continuous administration ([4]; continuous administration)	growth, pulsatile administration ([4]; pulsatile administration)	blood pressure, pulse rate, body temperature [5]	side effects [5]	effect on naturally occuring growth hormone pulses [6]	growth hormone secretion compared to vehicle infusion [6]	pulsatile growth hormone secretion during infusion [6]	growth hormone response to supramaximal bolus at end of infusion [7]
growth hormone releasing factor	reduced release of growth hormone	stimulates growth hormone secretion intermittently	normal or accentuated responses	augmented growth hormone secretion	rise in serum Insulin Growth Factor-1 (IGF-1) level	partial homologous desensitization	does not	accelerates growth	No changes in blood pressure, pulse rate, or body temperature	no side effects				
growth hormone releasing factor-40 (YADAIFTNSYRKVLGQLSARKLLQDIMSRQQGESNQERGA; Somatoliberin; UniProt P01286 32-71, looked up, fragment) [40 amino acid form of human growth hormone releasing factor]											augmentation of naturally occuring growth hormone pulses	greater growth hormone secretion than did vehicle infusion	pulsatile growth hormone secretion was maintained	inversely related to the 6 hour infusion dose
